Laboratory results taken from patent US11046721B2, “Ruthenium-based photolinkers and methods of use” (The Trustees of the University of Pennsylvania, priority 2014, dated 2021).

Columns and labels:
[1] = Selective photoactivation of Ru photolinkers (FIG. 25B); type: physicochemical
From the text: FIG. 25, comprising FIG. 25A-25B, depicts exemplary compounds of the invention.
Compounds [Ru(bpy)2(4-pentynenitrile)2][Cl]2 (Ru420) and [Ru(biq)2(4-pentynenitrile)2][Cl]2 (Ru530) are compounds of the invention which are useful for multiplexing of DNA and morpholino oligonucleotides (FIG. 25A).

[2] = 450-nm light, 53 mW/cm^2, 80 μM, 1.5 mL, stirred
Method: Light source: 450 nm laser (14 mW/cm^2), 14 μM RuBEP in water, 0.2 OD.
A sapphire Galaxy Blue handheld laser was purchased from Beam of Light Technologies (Oregon, USA) and used to determine the quantum yield of RuBEP. Measured power at the sample was 53 mW/cm^2, with a maximum output wavelength of 450 nm.
Photodissociation of 3EP from RuBEP was monitored by LCMS (FIG. 4), UV-Vis (FIG. 6B) and ^1H and ^13C NMR (FIG. 5) spectroscopies. Upon continuous irradiation with 450-nm light (53 mW/cm^2, focused to 0.5 cm^2), the λmax red-shifted from 450 nm to 473 nm (FIG. 6B).
The formula for fitting the initial kinetics of the photoreaction is as follows:
[formula] Where: P1=net power of the laser during the trial (mW) E=energy of 450 nm light (J/photon) εs=extinction coefficient of RuBEP (starting material) at 475 nm=1800 M^−1cm^−1 εp=extinction coefficient of Rubpy2(3EP)(H2O)(product) at 475 nm=3800 M^−1cm^−1

[3] = reported, Zayat et al. 2003; cited from earlier work
notail (ntl) = assay: ntl knockdown phenotype in microinjected zebrafish embryos; type: in vivo; conditions: 0.25 mM injected at 1-cell stage, 24 hpf
Method: (§1) FIG. 16A is an image of a wildtype embryo, uninjected. […] All embryos were injected at 1-cell stage. […] MO Control: Zebrafish embryos were injected at the 1-cell stage with 0.25 mM ntl-MO and imaged at 24 hpf. Ru-MO-ntl: Zebrafish embryos were injected at the 1-cell stage with 0.25 mM Ru-MO-ntl. Half of the embryos were irradiated (450 nm, 14 mW/cm^2, 5 min) at 1 hpf, while the other half were incubated in the dark. Embryos were scored for phenotype at 24 hpf and compared to wildtype.
FIG. 17 is a series of images depicting zebrafish, including the ntl-MO knockdown phenotype. Zebrafish embryos were injected at the 1-cell stage with 0.25 mM ntl-MO and imaged at 24 hpf. […] Class 2 was identified by U-shaped somites, a shortened posterior axis, with the notochord still present.
FIG. 19 is a graph depicting Ru-cMO-ntl in vivo data. MO Control:Zebrafish embryos were injected at the 1-cell stage with 0.25 mM ntl-MO and imaged at 24 hpf. Ru-cMO-ntl:Zebrafish embryos were injected at the 1-cell stage with 0.25 mM Ru-cMO-ntl. Half of the embyros were irradiated (450 nm, 14 mW/cm^2, 5 min) at 1 hpf, while the other half were incubated in the dark. Embryos were scored for phenotype at 24 hpf and compared to wildtype.
Zebrafish embryos were obtained. All embryos obtained were TLF×TLF WT. […]

chordin (chd) = assay: chd knockdown phenotype in microinjected zebrafish embryos; type: in vivo; conditions: incubated in the dark; for Phenotype of embryos: injected at 1-cell stage, 24-28 hpf
Method: FIG. 15 is a series of images depicting zebrafish, including the chd-MO knockdown phenotype. Zebrafish embryos were injected at the 1-cell stage with 0.51 mM chd-MO and imaged at 24 hpf. […] Embryos scored as normal had V-shaped somites, and normal head and tail development. Severe was identified by decreased head size, U-shaped somites, and a large blood island on the tail. The moderate and mild phenotypes were identified by U-shaped somites and a medium or small blood island on the tail.
as §1
Zebrafish embryos were obtained. All embryos obtained were TLF×TLF WT. Zebrafish embryo injection solutions were prepared to contain a final concentration of 0.1 M KCl and 0.25% phenol red dye. All injections were performed at the one-cell stage and injected into the cell compartment only. A Harvard Apparatus PLI-100 pico-injector was used to inject controlled volumes. Injection volume was calibrated to dispense 5 nL per embryo. Zebrafish embryos were incubated at 28° C. in E3 zebrafish medium. […]
MO-chd or Ru-cMO-chd (514 pmol/μL) was microinjected into 1-cell-stage zebrafish embryos, which were incubated at 28° C. in the dark and at 24 hours post-fertilization (hpf), scored for phenotypic response and imaged using a previously reported method (Westerfield, from “The Zebrafish Book. A guide for the Laboratory Use of Zebrafish (Danio rerio).” 4th ed.; University of Oregon Press, 2000). Embryos scored as normal had V-shaped somites, and normal head and tail development. […]

[Ru(bipyridine)2(3-ethynyl- pyridine)2]^2+ [RuBEP]
Selective activation [1]: can be selectively activated | Time to complete photolysis of bulk solution [2]: 5 min

[Cl-].[Cl-].[Ru+2].c1ccc(-c2ccccn2)nc1.c1ccc(-c2ccccn2)nc1.c1ccncc1.c1ccncc1 [Ru(bpy)2(pyr)2Cl2]
Quantum yield of ligand exchange [3]: 0.4

[Ru(bipyridine)2(4- pentynenitrile)2]^2+ [Ru420]
Selective activation [1]: can be selectively activated

ntl-MO: linear antisense morpholino targeting notail, AGCTTGAGATAAGTCCGACGATCCT (SEQ ID NO: 7) (all phosphorodiamidate morpholino (PMO))
ntl knockdown phenotype (notail (ntl)): severe (class 4) to mild (class 2)

MO-chd: linear antisense morpholino targeting chordin, ATCCACAGCAGCCCCTCCATCATCC (SEQ ID NO: 4) (all phosphorodiamidate morpholino (PMO))
Embryos with normal phenotype (chordin (chd); MO-chd control injections, 24 hpf): ~5% | Phenotype of embryos (chordin (chd); listed as Bis-azido chd-MO): chd knockdown phenotype | Phenotype of embryos (chordin (chd); listed as chd-MO): severe to mild

[Ru(biquinoline)2(4- pentynenitrile)2]^2+ [Ru530]
Selective activation [1]: can be selectively activated
